Test results from article PMC7406636, “In vivo and in silico characterization of apocynin in reducing organ oxidative stress: A pharmacokinetic and pharmacodynamic study” (Pharmacology Research & Perspectives, 2020).
Read-outs that look alike come from different tables or passages of the source.

Key:
[1] = LogBB calculation, Log (Cbrain/Cplasma); format: in vivo, mouse
Experimental: LogBB of apocynin was calculated as described previously ^22 using the equation: LogBB = Log (Cbrain/Cplasma). We used the values from 1 to 30 minutes detected in both plasma and brain tissues for LogBB calculation since apocynin plasma concentration was fallen to ~10 ng/mL (limit of quantification) after 30 minutes of iv injection, n = 3 mice/per time point.

Nox2 = assay: Brain Nox2 expression by immunofluorescence, HFD mouse model; format: in vivo; settings: HFD brain sections, apocynin 5 mmol/L in drinking water, vs HFD
Experimental: The experiments were performed exactly as described previously. ^23 Midbrain (containing hippocampus and ventral tegmental area regions) cryosections were used for the experiments. Primary antibodies were used at 1:250 dilution. Bovine serum albumin (2%) was used in the place of primary antibodies as a negative control. Biotin‐conjugated secondary antibody was used at 1:1000 dilution. Specific binding of antibodies was detected by streptavidin‐Cy3. Images were captured using a Nikon fluorescence microscope (Eclipse Ti2‐E). Fluorescence intensities were quantified as described above.

[2] = system: ROS production on brain sections; assay: In situ ROS production by DHE fluorescence on brain sections after iv injection; format: in vivo, mouse; settings: brain sections harvested at 15 minutes after iv injection
Experimental: ROS production was measured using tissue homogenates by three complementary techniques: lucigenin (5 µmol/L)‐chemiluminescence (Molecular Devices); DHE (2 µmol/L) fluorescence on brain tissue sections, and brain tissue lipid peroxidation by malondialdehyde (MDA) assay as described previously. ^5 The specificity of detection of O2·‐ was confirmed by adding tiron (10 mmol/L), a non‐enzymatic O2·‐ scavenger. The enzymatic sources of O2·‐ production were identified using inhibitors targeting nitric oxide synthase (L‐N^G‐Nitro arginine methyl ester, L‐NAME, 100 μmol/L), the mitochondrial complex‐1 enzymes (rotenone, 50 μmol/L), xanthine oxidase (oxypurinol, 250 μmol/L), flavo‐proteins (diphenyleneiodonium, DPI, 20 μmol/L), or superoxide dismutase (SOD) (200 U/mL). The DHE fluorescence was captured using a Nikon fluorescence microscope (Eclipse Ti2‐E). The fluorescence intensity was quantified from at least three random images per section with three sections/per sample.

[3] = Apocynin in organs after 16 weeks in drinking water, HFD mouse model (HPLC-MS/MS); format: in vivo; settings: male, oral, C57BL/6J mice, HFD 16 weeks, apocynin 5 mmol/L in drinking water
Excerpt: The mouse model of high‐fat diet (HFD‐induced metabolic disorders and accelerated aging was established as described previously. ^8 Littermates of WT and Nox2KO mice (Jackson Laboratory) on a C57BL/6J background at 7 months of age were randomly assigned (n = 6/per group) to a HFD containing 45% kcal fat (Special Diets Services), or to a normal chow diet (NCD) containing 9.3% kcal fat (LabDiet Ltd) for 16 weeks. Apocynin was supplied in drinking water (5 mmol/L) for the treatment group. Body weights were measured weekly. Mice were sacrificed at 11 months of age and organs were harvested for further experiments.
The detection of apocynin in tissue sample was performed as described previously with some modifications. ^17 In brief, apocynin was detected using an Accela HPLC coupled to a linear ion‐trap tandem mass spectrometry (LTQ‐Orbitrap XL; Thermo‐Fisher Scientific) (HPLC‐MS/MS) in the negative ion mode. Phenacetin (500 ng/mL) was used as an internal standard in every vial. A reversed‐phase 50 × 2.1 mm ID, […], 175 Å pore C18 Hypersil Gold column (Thermo Scientific) was used with injection volume set at 5 µL for the separation of apocynin and phenacetin. Calibration curve used for PK analysis was constructed by spiking apocynin in mouse plasma using eight calibrators ranging from 1 to 10000 ng/mL with great reproducibility and R ^2 ≥ 0.996 for subsequent 5 separate experiments on different days. […] Limit of detection for apocynin was set up at signal to noise ratio ≥ 3, ^18 which is 1 ng/mL in our system. The limitation of quantification was set up at signal to noise ratio ≥ 10, which is 10 ng/mL in our system. Orbitrap component was used for the full scan spectra of apocynin and diapocynin.
The HFD study was performed exactly as described previously. ^8 Littermates of WT and Nox2KO mice on a C57BL/6J background (Jackson Laboratory, USA) were bred in our institution from heterozygotes and genotyped. […] Body weights were measured weekly. […] The body weights were recorded and organs were harvested.

[4] = design: method as in PMID 25140304; settings: rats, intraperitoneal injection, urine collected at 20 hours; cited from earlier work
[5] = PK simulation and model analysis using Phoenix WinNonlin 8.1 (non-compartmental and compartmental); format: in vivo; settings: CD1, mouse, plasma; for AUC / clearance / Vd: iv, 5 mg/kg
Experimental: PK parameters simulation was performed using the Phoenix WinNonlin 8.1 software (Certara.com). […] Data collected from sampling time 1‐360 minutes after iv injection were then pooled (n = 3) and tested against various compartmental models for a best fit using Phoenix WinNonlin 8.1 software. Parameters included the Akaike's information criterion (AIC), Bayesian information criteria (BIC) and corrected AIC (AICc) calculated using the equation: AICc = AIC +2 × nParm (nParm + 1)/(nObs − nParm − 1). ^21

[6] = design: method as in PMID 23455672; settings: cited from earlier work

In the case of `COc1cc(C(C)=O)ccc1O` [Apocynin, 4‐hydroxy‐3‐methoxyacetophenone], the LogBB ([1]; at 1 minute after iv injection) is reported as −0.1, the LogBB at 30 min ([1]; male, CD1, mouse, brain/plasma, 5 mg/kg, at 30 minutes after iv injection) is reported as 1 and the “effect on brain Nox2 expression” value (Nox2) is reported as “significantly reduced”. For the same compound, the “effect on DHE fluorescence (in situ ROS production)” value [2] was “inhibited effectively”, the concentration at 16 weeks ([3]; brain, read-out: brain apocynin concentration at end of treatment) was 5370 ± 1610 ng/g and the concentration at 16 weeks ([3]; heart, read-out: heart apocynin concentration at end of treatment) was 1800 ± 1490 ng/g. For the same compound, the concentration at 16 weeks ([3]; liver, read-out: liver apocynin concentration at end of treatment) was 4820 ± 1340 ng/g, the “apocynin recovered in unchanged form in urine” value [4] was 80% and the k el ([5]; NCA, iv 5 mg/kg, n = 3, read-out: Kel (elimination rate constant) (converted)) was 0.00379 s⁻¹. It also gave a half-life ([5]; NCA, iv 5 mg/kg, n = 3, read-out: t 1/2 (terminal half-life, plasma) (converted)) of 3 min, an AUC ([5]; male, 1-CA (one compartmental analysis), 0-6 h, read-out: AUC0‐∞) of 681 ng·h/mL and a clearance ([5]; male, 1-CA, 0-6 h, read-out: tvCL1 (typical value of compartmental clearance) (converted)) of 92.4 mL/min. The Vd ([5]; male, 1-CA, 0-6 h, read-out: tvV1 (typical value of compartmental volume of distribution)) was 0.531 L, the AUC ([5]; male, 2-CA (two compartmental analysis), 0-6 h, read-out: AUC0‐∞) was 711 ng·h/mL and the clearance ([5]; male, 2-CA, 0-6 h, read-out: tvCL1 (typical value of compartmental clearance) (converted)) was 92.3 mL/min. It also gave a Vd ([5]; male, 2-CA, 0-6 h, read-out: tvV1 (typical value of compartmental volume of distribution)) of 0.531 L, an AUC ([5]; male, 3-CA (three compartmental analysis), 0-6 h, read-out: AUC0‐∞) of 711 ng·h/mL and a clearance ([5]; male, 3-CA, 0-6 h, read-out: tvCL1 (typical value of compartmental clearance) (converted)) of 92 mL/min. The Vd ([5]; male, 3-CA, 0-6 h, read-out: tvV1 (typical value of compartmental volume of distribution)) was 0.531 L, the AUC ([5]; male, NCA, iv 5 mg/kg, n = 3, read-out: AUC0‐30min) was 643 ng·h/mL and the AUC ([5]; male, NCA, iv 5 mg/kg, n = 3, read-out: AUC0‐∞) was 644 ng·h/mL. The clearance ([5]; male, NCA, iv 5 mg/kg, n = 3, read-out: CL (clearance) (converted)) was 129 mL/min/kg, the Vd ([5]; male, NCA, iv 5 mg/kg, n = 3, read-out: V d (central volume of distribution)) was 0.569 L/kg and the clearance ([5]; male, NCA, iv 5 mg/kg, read-out: CL (systemic clearance) (converted)) was 129 mL/min/kg. The C0 ([5]; male, NCA, 0-30 min, iv 5 mg/kg, n = 3, read-out: C 0 (extrapolated plasma concentration at time 0)) was 7360 ng/mL, the Cmax ([5]; male, NCA, 0-30 min, iv 5 mg/kg, n = 3, read-out: C max (maximum plasma concentration)) was 5490 ng/mL and the pKa value [6] was 8.17.
